Source: US4118561A, “7-(Substituted)-7H-pyrrolo[3,2-f]quinazoline-1,3-diamines” (priority 1977, dated 1978)
Values after ≈ are worked out from the molar mass of the structure shown. Like-named read-outs stand apart in the source and are kept apart here.

How the values were obtained:
K. pneumoniae 10031 = assay: In vitro antibacterial activity (MIC), K. pneumoniae 10031; settings: Klebsiella pneumoniae, 10031, 18 h
S. aureus 53-180 = assay: In vitro antibacterial activity (MIC), S. aureus 53-180; settings: Staphylococcus aureus, 53180, 18 h
N. catarrhalis 8193 = assay: In vitro antibacterial activity (MIC), N. catarrhalis 8193; settings: 18 h
[1] = system: Plasmodium berghei KBG 173; assay: Antimalarial blood schizonticidal test in mice; format: in vivo, Plasmodium berghei (infected ICR/HA Swiss mice); set-up: ΔMST (increase in mean survival time): unit: days; settings: s.c.; for minimal effective dose / ED100: Plasmodium berghei, sc, single dose; for minimal effective dose: read-out: Min. Curing Dose; for Cure/Treat at Min. Curing Dose: at the Min. Curing Dose; for ED100: read-out: Lowest Dose Curing All Mice
Method in brief: (§1)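 ICR/HA Swiss mice (18–22 g) infected i.p. with 4 × 10^7 P. berghei KBG 173-parasitized cells; single subcutaneous dose in peanut oil at 72 h post-infection, graded dosages. Survival followed 60 days; 60-day survivors counted cured, deaths before day 6 counted toxic; mean survival time compared with untreated controls.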

bacterial infections = assay: Synergism with sulfamethoxazole against bacterial infections in mice, oral; format: in vivo
Protocol: The invention also provides compounds which will potentiate the antibacterial effects of sulfa drugs.
(§2) The test agents are weighed, suspended in 0.5% aqueous carboxymethyl cellulose, homogenized (glass tissue grinder) and diluted according to the design of the experiment. Mice (male, 18±1 g., CD-1 strain) are pre-weighed, pooled, infected at random intraperitoneally with a 0.5 ml. standardized suspension (LD95 ±5%) of the bacterial organism in 5% gastric mucin and treated at random with single doses of the test agents either at the time of infection or six hours after infecting. The treated groups consist of ten mice per dosage level. Deaths are recorded daily for 14 days and the PD50 (mice are treated at time of infection) and CD50 (mice are treated six hours after infecting) values are calculated by the method of Reed and Muench [Amer. J. Hyg., 27, 493 (1938)].

S. aureus Smith = assay: In vitro antibacterial activity (MIC), S. aureus Smith; settings: Staphylococcus aureus, 18 h
Proteus mirabilis 190 = assay: In vivo antibacterial synergism (mouse), Proteus mirabilis 190; set-up: species or system Proteus mirabilis (infected mice, CD-1); settings: mice, p.o.; for ED50: Proteus mirabilis, 190, po, 336 h; for PD50 SM/Cpd. (compound part): 0 hours, 20160 min
Protocol: as §2

S. paratyphi 11737 = assay: In vitro antibacterial activity (MIC), S. paratyphi 11737; format: cell-based; settings: Salmonella enterica, 18 h
E. coli 9637 = assay: In vitro antibacterial activity (MIC), E. coli 9637; settings: Escherichia coli, 9637, 18 h
P. vulgaris 6896 = assay: In vitro antibacterial activity (MIC), P. vulgaris 6896; settings: Proteus vulgaris, 6896, 18 h
[2] = Antimalarial blood schizonticidal test in mice; format: in vivo, Plasmodium berghei (infected ICR/HA Swiss mice); set-up: ΔMST (increase in mean survival time): unit: days; settings: mouse, in vivo, sc, single dose, read-out: Highest Non-Lethal Dose
Method in brief: as §1

P. cynomolgi = assay: Activity against P. cynomolgi infections in Rhesus monkeys; format: in vivo, P. cynomolgi (infected Rhesus monkeys); settings: Plasmodium cynomolgi, in Macaca mulatta, 168 h; Rhesus monkeys, oral, seven days; read-out: CD50 (the source's name)
[3] = system: lymphocytic leukemia P-388; assay: Activity in mice against lymphocytic leukemia P-388; format: in vivo; settings: Mus musculus, P388, ip, read-out: T/C; for response vs control in vivo at 10 mg/kg: mice, I.P.
Proteus vulgaris 347 = assay: In vivo antibacterial synergism (mouse), Proteus vulgaris 347; set-up: species or system Proteus vulgaris (infected mice, CD-1); settings: Proteus vulgaris, 347, po, 336 h, mice, p.o.
Protocol: as §2

Proteus mirabilis 3 = assay: In vivo antibacterial synergism (mouse), Proteus mirabilis 3; set-up: species or system Proteus mirabilis (infected mice, CD-1); settings: Proteus mirabilis, 3, po, 336 h; mice, p.o., treated 0 hours after infecting; read-out: PD50 (agent alone)
Protocol: as §2

Escherichia coli W-102 = assay: In vivo antibacterial synergism (mouse), Escherichia coli W-102; set-up: species or system Escherichia coli (infected mice, CD-1); settings: Escherichia coli, W102, po, 336 h; mice, p.o., treated 0 hours after infecting; read-out: PD50 (agent alone)
Protocol: as §2

[4] = treated 0 hours after infecting, read-out: PD50 (agent alone)
[5] = infected mice, highest dose with no deaths for any reason
[6] = 336 h, alive on day 14 considered cured, no 60-day data
[7] = treated 6 hours after infecting, read-out: CD50 (agent alone)

Structure (SMILES) | MIC (K. pneumoniae 10031) | MIC (S. aureus 53-180) | MIC (N. catarrhalis 8193) | minimal effective dose ([1]; 1440 h, 60-day survivors) | Cure/Treat at Min. Curing Dose ([1]; 60-day survivors) | synergistic effect with sulfamethoxazole (bacterial infections) | MIC (S. aureus Smith) | ED50 (Proteus mirabilis 190; [4]) | PD50 SM/Cpd. (compound part) (Proteus mirabilis 190; with SM 1.56 mg. per kg.) | MIC (S. paratyphi 11737) | MIC (E. coli 9637) | MIC (P. vulgaris 6896) | ED100 ([1]; 1440 h, 60-day survivors) | MTD [2, 5] | further results
Nc1nc(N)c2c(ccc3c2ccn3-c2nccs2)n1 [Example 81, 7-(2-thiazolyl)-7H-pyrrolo[3,2-f]quinazoline-1,3-diamine] | 0.244 mg/L (≈ 0.864 µM) | 0.244 mg/L (≈ 0.864 µM) | 0.0152 mg/L (≈ 0.0538 µM) | 640 mg/kg | 4/5 | synergistic effect | 0.488 mg/L (≈ 1.73 µM) | 22.3 mg/kg | > 12.5 mg. per kg. | 1.95 mg/L (≈ 6.91 µM) | 0.976 mg/L (≈ 3.46 µM) | 3.9 mg/L (≈ 13.8 µM) | – | – | ΔMST (increase in mean survival time) ([1]; dose 160 mg. per kg.): 8.3; PD50 SM/Cpd. (compound part) (Proteus mirabilis 190; with SM 3.11 mg. per kg.): 6.25 mg. per kg.
N#Cc1cccc(Cn2ccc3c4c(N)nc(N)nc4ccc32)c1 [Example 15, 7-[(3-cyanophenyl)methyl]-7H-pyrrolo[3,2-f]-quinazoline-1,3-diamine] | 0.031 mg/L (≈ 0.0986 µM) | 0.031 mg/L (≈ 0.0986 µM) | 0.0038 mg/L (≈ 0.0121 µM) | 1.25 mg/kg | 2/5 | synergistic effect | 0.061 mg/L (≈ 0.194 µM) | 8.8 mg/kg | 2.67 mg. per kg. | 0.488 mg/L (≈ 1.55 µM) | 0.122 mg/L (≈ 0.388 µM) | 0.976 mg/L (≈ 3.1 µM) | 10 mg/kg | 40 mg/kg | ΔMST (increase in mean survival time) ([1]; dose 1.25 mg. per kg.): 9.6
Nc1nc(N)c2c(ccc3c2ccn3Cc2ccc(F)cc2)n1 [Example 5, 7-[(4-fluorophenyl)methyl]-7H-pyrrolo[3,2-f]-quinazoline-1,3-diamine] | 0.031 mg/L (≈ 0.101 µM) | 0.122 mg/L (≈ 0.397 µM) | 0.0038 mg/L (≈ 0.0124 µM) | 5 mg/kg | 2/5 | synergistic effect | 0.244 mg/L (≈ 0.794 µM) | 9.8 mg/kg | 1.56 mg. per kg. | 0.488 mg/L (≈ 1.59 µM) | 0.122 mg/L (≈ 0.397 µM) | 0.488 mg/L (≈ 1.59 µM) | 20 mg/kg | 80 mg/kg | ΔMST (increase in mean survival time) ([1]; dose 2.5 mg. per kg.): 7.1
COc1ccc(Cn2ccc3c4c(N)nc(N)nc4ccc32)cc1 [Example 34, 7-[(4-methoxyphenyl)methyl]-7H-pyrrolo[3,2-f]quinazoline-1,3-diamine] | 0.061 mg/L (≈ 0.191 µM) | 0.244 mg/L (≈ 0.764 µM) | 0.0152 mg/L (≈ 0.0476 µM) | 5 mg/kg | 2/5 | – | 0.976 mg/L (≈ 3.06 µM) | – | – | 0.976 mg/L (≈ 3.06 µM) | 0.488 mg/L (≈ 1.53 µM) | 0.976 mg/L (≈ 3.06 µM) | 20 mg/kg | 160 mg/kg | ΔMST (increase in mean survival time) ([1]; dose 5 mg. per kg.): 11.2; ED50 (P. cynomolgi): 0.316 mg/kg
Cc1cc2c3c(N)nc(N)nc3ccc2n1Cc1ccccc1 [Example 100, 8-methyl-7-(phenylmethyl)-7H-pyrrolo[3,2-f]-quinazoline-1,3-diamine] | 0.244 mg/L (≈ 0.804 µM) | 0.976 mg/L (≈ 3.22 µM) | 0.122 mg/L (≈ 0.402 µM) | – | – | synergistic effect | 1.95 mg/L (≈ 6.43 µM) | 36.6 mg/kg | 3.11 mg. per kg. | 3.9 mg/L (≈ 12.9 µM) | 0.488 mg/L (≈ 1.61 µM) | 15.6 mg/L (≈ 51.4 µM) | – | – | –
Cc1ccc(Cn2ccc3c4c(N)nc(N)nc4ccc32)cc1C [Example 25] | 0.488 mg/L (≈ 1.54 µM) | 0.976 mg/L (≈ 3.08 µM) | 0.122 mg/L (≈ 0.384 µM) | – | – | – | 1.95 mg/L (≈ 6.14 µM) | – | – | 31.3 mg/L (≈ 98.6 µM) | 1.95 mg/L (≈ 6.14 µM) | 62.5 mg/L (≈ 197 µM) | – | – | ED100 [1, 6]: 10 mg/kg; minimal effective dose [1, 6]: 5 mg/kg; Cure/Treat at Min. Curing Dose ([1]; alive on day 14 considered cured): 2/5; ΔMST (increase in mean survival time) ([1]; dose 2.5 mg. per kg., alive on day 14 considered cured, no 60-day data): 6.5; MTD ([2]; alive on day 14 considered cured, no 60-day data): 80 mg/kg; response vs control in vivo at 10 mg/kg [3]: 139%
Nc1nc(N)c2c(ccc3c2ccn3Cc2ccccn2)n1 [Example 43] | 0.061 mg/L (≈ 0.21 µM) | 0.488 mg/L (≈ 1.68 µM) | < 0.0009 mg/L | 20 mg/kg | 2/5 | – | 0.976 mg/L (≈ 3.36 µM) | – | – | 0.244 mg/L (≈ 0.84 µM) | 0.488 mg/L (≈ 1.68 µM) | 0.244 mg/L (≈ 0.84 µM) | 80 mg/kg | 80 mg/kg | ΔMST (increase in mean survival time) ([1]; dose 20 mg. per kg.): 11.6; response vs control in vivo at 20 mg/kg [3]: 146%
Cc1cc(NS(=O)(=O)c2ccc(N)cc2)no1 [SM, sulfomethoxazole, reference compound] | – | – | – | – | – | – | – | – | – | – | – | – | – | – | ED50 (Proteus vulgaris 347; [4]): 43.2 mg/kg; ED50 (Proteus vulgaris 347; [7]): 60 mg/kg; ED50 (Proteus mirabilis 190; [7]): 14 mg/kg; ED50 (Proteus mirabilis 3): 9.9 mg/kg; ED50 (Escherichia coli W-102): 95 mg/kg
Nc1nc(N)c2c(ccc3c2ccn3Cc2ccc3ccccc3n2)n1 [Example 50] | 0.122 mg/L (≈ 0.358 µM) | 0.488 mg/L (≈ 1.43 µM) | 0.0038 mg/L (≈ 0.0112 µM) | 1.25 mg/kg | 2/5 | – | 0.976 mg/L (≈ 2.87 µM) | – | – | 7.81 mg/L (≈ 22.9 µM) | 7.81 mg/L (≈ 22.9 µM) | 7.81 mg/L (≈ 22.9 µM) | 5 mg/kg | 160 mg/kg | ΔMST (increase in mean survival time) ([1]; dose 1.25 mg. per kg.): 6.9; response vs control in vivo at 10 mg/kg [3]: 145%
Nc1cccc(Cn2ccc3c4c(N)nc(N)nc4ccc32)c1 [Example 62, 7-[(3-Aminophenyl)methyl]-7H-pyrrolo[3,2-f]quinazoline-1,3-diamine] | 0.122 mg/L (≈ 0.401 µM) | 0.244 mg/L (≈ 0.802 µM) | 0.061 mg/L (≈ 0.2 µM) | 5 mg/kg | 3/5 | – | 0.488 mg/L (≈ 1.6 µM) | – | – | 0.976 mg/L (≈ 3.21 µM) | 0.244 mg/L (≈ 0.802 µM) | 1.95 mg/L (≈ 6.41 µM) | 20 mg/kg | 80 mg/kg | ΔMST (increase in mean survival time) ([1]; dose 1.25 mg. per kg.): 7.8; response vs control in vivo at 10 mg/kg [3]: 165%
N#Cc1ccc(-n2ccc3c4c(N)nc(N)nc4ccc32)cc1 [Example 69, 7-(4-Cyanophenyl)-7H-pyrrolo[3,2-f]-quinazoline-1,3-diamine] | 0.122 mg/L (≈ 0.406 µM) | 0.488 mg/L (≈ 1.62 µM) | 0.031 mg/L (≈ 0.103 µM) | 5 mg/kg | 3/5 | synergistic effect | 0.976 mg/L (≈ 3.25 µM) | > 400 mg/kg | 9.39 mg. per kg. | 31.3 mg/L (≈ 104 µM) | 0.976 mg/L (≈ 3.25 µM) | 125 mg/L (≈ 416 µM) | 20 mg/kg | 20 mg/kg | ΔMST (increase in mean survival time) ([1]; dose 2.5 mg. per kg.): 11; PD50 SM/Cpd. (compound part) (Proteus mirabilis 190; with SM 0.39 mg. per kg.): > 12.5 mg. per kg.; PD50 SM/Cpd. (compound part) (Proteus mirabilis 190; with SM 0.78 mg. per kg.): > 12.5 mg. per kg.; PD50 SM/Cpd. (compound part) (Proteus mirabilis 190; with SM 3.11 mg. per kg.): 2.55 mg. per kg.
